In PubChem BioAssay (NCI):
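A five-concentration, 48-hour dose response in 96-well plates underlies each endpoint, interpolated linearly between surrounding concentrations. GI50: concentration for 50% inhibition of growth. At the TGI there is no net growth.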

How the values were obtained:
Test in all cases: DTP human tumour cell line panel, 48 h
SF-295 CNS = tested on: SF-295 CNS
UACC-257 melanoma = tested on: UACC-257 melanoma
RPMI-8226 leukemia = tested on: RPMI-8226 leukemia
SF-268 CNS = tested on: SF-268 CNS
OVCAR-4 ovarian = tested on: OVCAR-4 ovarian
SF-539 CNS = tested on: SF-539 CNS
HS 578T breast = tested on: HS 578T breast
T-47D breast = tested on: T-47D breast
PC-3 prostate = tested on: PC-3 prostate
MDA-MB-231 breast = tested on: MDA-MB-231 breast

Cc1cc2c(=O)cc(-c3ccc(Cl)cc3)oc2c(C(=O)O)c1C
TGI (SF-295 CNS): > 100 µM | TGI (UACC-257 melanoma): > 100 µM | TGI (RPMI-8226 leukemia): > 100 µM | TGI (SF-268 CNS): > 100 µM | TGI (OVCAR-4 ovarian): > 100 µM | TGI (SF-539 CNS): > 100 µM

CC(=O)Nc1ccc(C(=O)N[C@@H]2C(=O)N3[C@@H]2SC(C)(C)[C@@H]3C(=O)O)cn1
TGI (HS 578T breast): > 100 µM | TGI (SF-295 CNS): > 100 µM | TGI (T-47D breast): > 100 µM | TGI (PC-3 prostate): > 100 µM | TGI (UACC-257 melanoma): > 100 µM | TGI (RPMI-8226 leukemia): > 100 µM | TGI (MDA-MB-231 breast): > 100 µM | TGI (SF-268 CNS): > 100 µM | TGI (OVCAR-4 ovarian): > 100 µM

Cc1c(Cl)cccc1NC(=O)C(=O)C1C(=O)NC(=O)NC1=O
TGI (SF-295 CNS): > 100 µM | TGI (UACC-257 melanoma): > 100 µM | TGI (RPMI-8226 leukemia): > 100 µM | TGI (SF-268 CNS): > 100 µM | TGI (OVCAR-4 ovarian): > 100 µM | TGI (SF-539 CNS): > 100 µM

CC(CN(CP(=O)([O-])[O-])CP(=O)([O-])[O-])N(CP(=O)([O-])[O-])CP(=O)([O-])[O-].N[C@@H]1CCCC[C@@H]1N.[Pt+2] (centres undefined)
GI50 (SF-295 CNS): > 100 µM | TGI (SF-295 CNS): > 100 µM | GI50 (UACC-257 melanoma): > 100 µM | TGI (UACC-257 melanoma): > 100 µM | GI50 (RPMI-8226 leukemia): > 100 µM | TGI (RPMI-8226 leukemia): > 100 µM | GI50 (SF-268 CNS): > 100 µM | TGI (SF-268 CNS): > 100 µM | GI50 (OVCAR-4 ovarian): > 100 µM | TGI (OVCAR-4 ovarian): > 100 µM | GI50 (SF-539 CNS): > 100 µM | TGI (SF-539 CNS): > 100 µM

Cc1ccc(/C=C2\CCOC2=O)cc1
GI50 (T-47D breast): > 100 µM | TGI (T-47D breast): > 100 µM | GI50 (PC-3 prostate): > 100 µM | TGI (PC-3 prostate): > 100 µM | GI50 (UACC-257 melanoma): > 100 µM | TGI (UACC-257 melanoma): > 100 µM | GI50 (MDA-MB-231 breast): > 100 µM | TGI (MDA-MB-231 breast): > 100 µM | GI50 (SF-268 CNS): 60.2 µM | TGI (SF-268 CNS): > 100 µM | GI50 (OVCAR-4 ovarian): > 100 µM | TGI (OVCAR-4 ovarian): > 100 µM | GI50 (SF-539 CNS): > 100 µM | TGI (SF-539 CNS): > 100 µM

O=Cc1ccc(C(F)(F)F)cc1.[C-]#[O+].[C-]#[O+].[C-]#[O+].[Cr]
GI50 (HS 578T breast): 24.6 µM | TGI (HS 578T breast): 75.9 µM | GI50 (SF-295 CNS): 38.1 µM | TGI (SF-295 CNS): > 100 µM | GI50 (T-47D breast): 14.4 µM | TGI (T-47D breast): 62.4 µM | GI50 (PC-3 prostate): 31.2 µM | TGI (PC-3 prostate): > 100 µM | GI50 (UACC-257 melanoma): 58.2 µM | TGI (UACC-257 melanoma): > 100 µM | GI50 (MDA-MB-231 breast): 25 µM | TGI (MDA-MB-231 breast): > 100 µM | GI50 (SF-268 CNS): 21 µM | TGI (SF-268 CNS): > 100 µM | GI50 (OVCAR-4 ovarian): 27.1 µM | TGI (OVCAR-4 ovarian): > 100 µM | GI50 (SF-539 CNS): 18.5 µM | TGI (SF-539 CNS): 54.3 µM

CCCCCCCCCCCCC(Br)C(=O)SCCNC(=O)CCNC(=O)[C@@H](O)C(C)(C)COP(=O)(O)OP(=O)(O)OCC1OC(n2cnc3c(N)ncnc32)C(O)C1OP(=O)(O)O (some centres undefined)
TGI (SF-295 CNS): > 56.5 µM | TGI (UACC-257 melanoma): 40.4 µM | TGI (SF-268 CNS): > 56.5 µM | TGI (OVCAR-4 ovarian): > 56.5 µM | TGI (SF-539 CNS): > 56.5 µM

COc1nc2c(nc(N)n2C2OC(CO)C(O)C(O)C2O)c(=O)n1C (centres undefined)
TGI (SF-295 CNS): > 100 µM | TGI (UACC-257 melanoma): > 100 µM | TGI (SF-268 CNS): > 100 µM | TGI (OVCAR-4 ovarian): > 100 µM | TGI (SF-539 CNS): > 100 µM

CC(C)(C)c1ccccc1NS(=O)(=O)c1ccccc1
TGI (SF-295 CNS): > 100 µM | TGI (UACC-257 melanoma): > 100 µM | TGI (RPMI-8226 leukemia): > 100 µM | TGI (OVCAR-4 ovarian): > 100 µM | TGI (SF-539 CNS): > 100 µM

CCOc1ccc(NC(=O)C2=C(C)NC(C)=C(C(=O)Nc3ccc(OCC)cc3)C2c2ccc([N+](=O)[O-])cc2)cc1
TGI (SF-295 CNS): > 100 µM | TGI (UACC-257 melanoma): > 100 µM | TGI (RPMI-8226 leukemia): 64.2 µM | TGI (SF-268 CNS): > 100 µM | TGI (OVCAR-4 ovarian): > 100 µM | TGI (SF-539 CNS): > 100 µM

CCCCCCCCCCCCCC(=O)OCC1OC(OC)C(NC(=O)N(CCCl)N=O)C(O)C1O (centres undefined)
TGI (UACC-257 melanoma): 30.2 µM | TGI (RPMI-8226 leukemia): 42.6 µM | TGI (SF-268 CNS): 40.1 µM | TGI (OVCAR-4 ovarian): 50.7 µM | TGI (SF-539 CNS): 12.9 µM

CN(C)/[N+]([O-])=N/Oc1cc(Nc2ccc(C(=O)O)cc2)c([N+](=O)[O-])cc1[N+](=O)[O-]
GI50 (HS 578T breast): 21.7 µM | TGI (HS 578T breast): 57.3 µM | GI50 (SF-295 CNS): 16.9 µM | TGI (SF-295 CNS): 34 µM | GI50 (PC-3 prostate): 26.5 µM | TGI (PC-3 prostate): 53.1 µM | GI50 (UACC-257 melanoma): 19.4 µM | TGI (UACC-257 melanoma): 35.5 µM | GI50 (RPMI-8226 leukemia): 23.6 µM | TGI (RPMI-8226 leukemia): > 100 µM | GI50 (MDA-MB-231 breast): 17 µM | TGI (MDA-MB-231 breast): 31.3 µM | GI50 (SF-268 CNS): 20.4 µM | TGI (SF-268 CNS): 40.1 µM | GI50 (SF-539 CNS): 23.5 µM | TGI (SF-539 CNS): 53.6 µM

Cc1cc(S(N)(=O)=O)c(S/C(=N\NS(=O)(=O)c2ccc(Cl)cc2)c2ccc(Cl)cc2)cc1Cl
GI50 (HS 578T breast): 79.7 µM | TGI (HS 578T breast): > 100 µM | GI50 (SF-295 CNS): > 100 µM | TGI (SF-295 CNS): > 100 µM | GI50 (PC-3 prostate): 56.8 µM | TGI (PC-3 prostate): > 100 µM | GI50 (UACC-257 melanoma): > 100 µM | TGI (UACC-257 melanoma): > 100 µM | GI50 (RPMI-8226 leukemia): 22 µM | TGI (RPMI-8226 leukemia): > 100 µM | GI50 (MDA-MB-231 breast): > 100 µM | TGI (MDA-MB-231 breast): > 100 µM | GI50 (SF-268 CNS): > 100 µM | TGI (SF-268 CNS): > 100 µM | GI50 (OVCAR-4 ovarian): > 100 µM | TGI (OVCAR-4 ovarian): > 100 µM | GI50 (SF-539 CNS): > 100 µM | TGI (SF-539 CNS): > 100 µM

Cc1cc(Cl)ccc1NC(=O)C1C(=O)N(c2ccc(Cl)cc2C)C(=O)/C1=N\N (centres undefined)
TGI (SF-295 CNS): > 100 µM | TGI (UACC-257 melanoma): > 100 µM | TGI (RPMI-8226 leukemia): > 100 µM | TGI (SF-268 CNS): 96.4 µM | TGI (OVCAR-4 ovarian): > 100 µM | TGI (SF-539 CNS): > 100 µM

Cc1ccccc1NC(=O)c1[nH]c(=S)nc(N)c1-c1ccccc1C
TGI (SF-295 CNS): > 100 µM | TGI (UACC-257 melanoma): > 100 µM | TGI (RPMI-8226 leukemia): > 100 µM | TGI (SF-268 CNS): > 100 µM | TGI (OVCAR-4 ovarian): > 100 µM | TGI (SF-539 CNS): > 100 µM

O=C1C(c2ccccc2)=C(c2ccccc2)C(c2ccccc2)/C1=C1\C(=O)C(c2ccccc2)=C(c2ccccc2)C1c1ccccc1 (centres undefined)
TGI (SF-295 CNS): > 100 µM | TGI (UACC-257 melanoma): > 100 µM | TGI (RPMI-8226 leukemia): > 100 µM | TGI (SF-268 CNS): > 100 µM | TGI (OVCAR-4 ovarian): > 100 µM | TGI (SF-539 CNS): > 100 µM

COc1ccc(Cc2ccccc2C(=O)O)c2ccccc12
TGI (HS 578T breast): 57.8 µM | TGI (SF-295 CNS): 93 µM | TGI (T-47D breast): > 100 µM | TGI (PC-3 prostate): > 100 µM | TGI (UACC-257 melanoma): 48.3 µM | TGI (RPMI-8226 leukemia): > 100 µM | TGI (MDA-MB-231 breast): > 100 µM | TGI (SF-268 CNS): 87.5 µM | TGI (OVCAR-4 ovarian): > 100 µM

C[Si](C)(C)/C(Br)=C\CCN1C(=O)CCC1O (centres undefined)
TGI (SF-295 CNS): > 100 µM | TGI (UACC-257 melanoma): > 100 µM | TGI (RPMI-8226 leukemia): > 100 µM | TGI (SF-268 CNS): > 100 µM | TGI (OVCAR-4 ovarian): > 100 µM | TGI (SF-539 CNS): > 100 µM

Fc1ccc(Nc2nc(Nc3ccc(-c4nc5ccccc5[nH]4)cc3)nc(N3CCCC3)n2)cc1
GI50 (HS 578T breast): 2.16 µM | TGI (HS 578T breast): 5.82 µM | GI50 (SF-295 CNS): 1.97 µM | TGI (SF-295 CNS): 4.37 µM | GI50 (T-47D breast): 2.28 µM | TGI (T-47D breast): 5.58 µM | GI50 (PC-3 prostate): 2.74 µM | TGI (PC-3 prostate): 8.05 µM | GI50 (RPMI-8226 leukemia): 2.28 µM | TGI (RPMI-8226 leukemia): 6.3 µM | GI50 (MDA-MB-231 breast): 1.87 µM | TGI (MDA-MB-231 breast): 4.35 µM | GI50 (SF-268 CNS): 2.67 µM | TGI (SF-268 CNS): 7.99 µM | GI50 (OVCAR-4 ovarian): 3.65 µM | TGI (OVCAR-4 ovarian): 14.6 µM | GI50 (SF-539 CNS): 2.08 µM | TGI (SF-539 CNS): 4.26 µM

N#Cc1c2ccccc2c2nnc3cc(Cl)c(Cl)cc3n12
GI50 (SF-295 CNS): 93.7 µM | TGI (SF-295 CNS): > 100 µM | GI50 (T-47D breast): > 100 µM | TGI (T-47D breast): > 100 µM | GI50 (PC-3 prostate): 30 µM | TGI (PC-3 prostate): 73.7 µM | GI50 (UACC-257 melanoma): 34.5 µM | TGI (UACC-257 melanoma): > 100 µM | GI50 (RPMI-8226 leukemia): 29.6 µM | TGI (RPMI-8226 leukemia): > 100 µM | GI50 (MDA-MB-231 breast): 24.2 µM | TGI (MDA-MB-231 breast): 74.6 µM | GI50 (SF-268 CNS): 27.7 µM | TGI (SF-268 CNS): 83.3 µM | GI50 (OVCAR-4 ovarian): 40.8 µM | TGI (OVCAR-4 ovarian): > 100 µM | GI50 (SF-539 CNS): 28.5 µM | TGI (SF-539 CNS): 61.8 µM
